Test results from PMC8116058, “De novo macrocyclic peptides dissect energy coupling of a heterodimeric ABC transporter by multimode allosteric inhibition” (eLife, 2021).
Positions of bridges follow the written chain, without caps; N, C: chain ends. Non-standard residues stand in square brackets, D forms with d. Residues, ends and D or L forms follow the SMILES beside them. *: point of attachment. 5FAM = O=C1OC2(c3ccc(O)cc3Oc3cc(O)ccc32)c2ccc(C(=O)*)cc21; βAla = NCCC(=O)O

Tested on: detergent-solubilized IF or OF TmrA^EQB
Test: CP^F anisotropy with IF or OF TmrA^EQB under nucleotide conditions
Type: binding, Thermus thermophilus
Conditions: for Binding under nucleotide conditions: absence and presence of ATP and ADP
Excerpt: ABC transport complexes such as TmrAB run through multiple conformational states along the ATP hydrolysis cycle to drive unidirectional substrate transport ([Hofmann et al., 2019]; [Stefan et al., 2020]). Within the substrate translocation cycle, two major conformers, inward-facing (IF) and outward-facing (OF), were identified. To investigate whether CPs favor one of these conformers, we probed the binding of CP^Fs by fluorescence polarization analysis. […] In the latter case, the interaction studies were performed immediately after the IF-to-OF switch by incubation with ATP for 5 min at 45°C. To exclude an OF-to-IF return (τ1/2 of 25 min) ([Stefan et al., 2020]), the fluorescence anisotropy was recorded only within the first minute of incubation.
Figure 5. […] (A, B) CP6^F (A) or CP13^F (B, 50 nM each) were incubated with increasing concentrations of detergent-solubilized inward-facing TmrAB (in the absence of Mg-ATP) or outward-facing TmrA^EQB, which was trapped with Mg-ATP (1 mM) for 5 min at 45°C as described ([Hofmann et al., 2019]; [Stefan et al., 2020]). Immediately after, the fluorescence anisotropy was assayed at λex/em = 485/520 nm. The difference in fluorescence polarization was normalized to free and fully bound CP^F. Data were fitted by a one-site binding model. […] TmrAB (2 µM each) were mixed with CP^Fs (4 µM), ATP (1 mM, traced with [α^32P]-ATP), and MgCl2 (5 mM) for 5 min at 4°C or 45°C. Cold ATP (10 mM) was added, and freely exchangeable nucleotides were removed by rapid gel filtration. Occluded nucleotides were analyzed by thin layer chromatography and autoradiography. Representative radiograms for independent triplicates are shown. (D) Stably occluded nucleotides, [α^32P]-ATP and [α^32P]-ADP, were quantified by autoradiography. Data were normalized to the vanadate-trapped state. In (A, B, D), mean values ± SD (n = 3) are shown. Figure 5—source data 1. Source Data for Figure 5. Figure 5—figure supplement 1. […] (A) CP^Fs (50 nM each) were incubated with increasing concentrations of detergent-solubilized IF TmrAB in the inward-facing (IF) conformation (absence of Mg-ATP) or TmrA^EQB populated in the outward-facing (OF) conformation, which was trapped in the OF conformation by Mg-ATP (1 mM) after 5 min incubation at 45°C. The difference in fluorescence polarization was normalized to unbound (0%) and 100% bound CP^F. Data were fitted by a one-site binding model. Fluorescence anisotropy was recorded at λex/em = 485/520 nm. […] TmrA^EQB (2 µM) were incubated in the absence and presence of CP^Fs (4 µM each), ATP (1 mM, traced with [α^32P]-ATP), and MgCl2 (5 mM) for 5 min at 4°C or 45°C. Cold ATP (10 mM) was added, and free nucleotides were removed by rapid gel filtration. Occluded nucleotides were analyzed by thin layer chromatography and autoradiography. Representative radiograms for independent triplicates are shown. […] Figure 5—figure supplement 1—source data 1.
To determine equilibrium binding constants, CP^Fs (50 nM) were incubated with increasing concentrations of TmrAB-containing or empty liposomes. To probe the conformational selectivity, CP^Fs (50 nM) were mixed with detergent-solubilized IF TmrAB or OF TmrA^EQB. Before, OF TmrA^EQB was nucleotide-trapped by incubation with ATP (1 mM) and MgCl2 (3 mM) in the absence of CP^Fs for 5 min at 45°C.

[1] = TmrAB, 4 °C, CP^F 50 nM, TmrA^EQB 150 nM (CP6^F), 170 nM (CP12^F), 50 nM (CP13^F), 120 nM (CP14^F)
[2] = TmrAB, 45 °C, no nucleotide, CP^F 50 nM, TmrA^EQB 50-170 nM
[3] = TmrAB, ADP, 45 °C, CP^F 50 nM, TmrA^EQB 50-170 nM
[4] = TmrAB, ATP, 45 °C (OF), CP^F 50 nM, TmrA^EQB 50-170 nM
[5] = listed as 4 °C: CP^F 50 nM without TmrAB

Row | SMILES | Bound CP^F, fluorescence anisotropy [1] | Bound CP^F, fluorescence anisotropy [2] | Bound CP^F, fluorescence anisotropy [3] | Bound CP^F, fluorescence anisotropy [4] | Binding under nucleotide conditions | Bound CP^F, fluorescence anisotropy [5]
1 | CC(C)[C@@H]1NC(=O)[C@H](Cc2ccccc2)NC(=O)[C@@H]2CCCN2C(=O)[C@H](CC(N)=O)NC(=O)[C@H](Cc2c[nH]c3ccccc23)NC(=O)[C@H](C(C)C)NC(=O)[C@H](Cc2ccc(O)cc2)NC(=O)[C@H](Cc2ccccc2)NC(=O)[C@@H](Cc2ccc(O)cc2)NC(=O)CSC[C@@H](C(=O)NCC(=O)N[C@@H](CO)C(=O)NCCC(=O)NCCC(=O)N[C@@H](CCCNC(=N)N)C(=O)N[C@@H](CCCCNC(=O)c2ccc3c(c2)C(=O)OC32c3ccc(O)cc3Oc3cc(O)ccc32)C(N)=O)NC(=O)[C@H](CCCCN)NC(=O)[C@H](Cc2ccccc2)NC1=O [CP14] ({CH2CO}-[dY]FYVWNPFVFKCGS[βAla][βAla]RK(5FAM)-NH2; thioether N-12; C-terminus assumed) | 0.134 | 0.132 | 0.131 | 0.127 | bind in the absence and presence of ATP and ADP | 0.023
2 | CC[C@H](C)[C@@H]1NC(=O)[C@H]([C@@H](C)O)NC(=O)[C@H](CC(C)C)NC(=O)[C@H](Cc2c[nH]c3ccccc23)NC(=O)[C@H](Cc2ccccc2)NC(=O)[C@H](CC(N)=O)NC(=O)[C@H](CCC(=O)O)NC(=O)[C@H](CC(C)C)NC(=O)[C@H](CS)NC(=O)[C@H](Cc2c[nH]cn2)NC(=O)[C@H](CO)NC(=O)[C@@H](Cc2ccc(O)cc2)NC(=O)CSC[C@@H](C(=O)NCC(=O)N[C@@H](CO)C(=O)NCCC(=O)NCCC(=O)N[C@@H](CCCNC(=N)N)C(=O)N[C@@H](CCCCNC(=O)c2ccc3c(c2)C(=O)OC32c3ccc(O)cc3Oc3cc(O)ccc32)C(N)=O)NC(=O)[C@H](CC(C)C)NC1=O [CP6] ({CH2CO}-[dY]SHCLENFWLTILCGS[βAla][βAla]RK(5FAM)-NH2; thioether N-14) | 0.143 | 0.132 | 0.129 | 0.050 | preferentially bind under conditions where IF TmrAB is exclusively populated | 0.019
3 | CC(C)C[C@@H]1NC(=O)[C@H](Cc2ccccc2)NC(=O)CNC(=O)[C@H](CO)NC(=O)[C@H](Cc2ccccc2)NC(=O)[C@H](CC(=O)O)NC(=O)[C@@H]2CCCN2C(=O)[C@H]([C@@H](C)O)NC(=O)[C@@H](Cc2ccc(O)cc2)NC(=O)CSC[C@@H](C(=O)NCC(=O)N[C@@H](CO)C(=O)NCCC(=O)NCCC(=O)N[C@@H](CCCNC(=N)N)C(=O)N[C@@H](CCCCNC(=O)c2ccc3c(c2)C(=O)OC32c3ccc(O)cc3Oc3cc(O)ccc32)C(N)=O)NC(=O)[C@H](C)NC(=O)[C@H](CC(N)=O)NC(=O)[C@H](CCCNC(=N)N)NC(=O)[C@H](CC(C)C)NC(=O)[C@H](Cc2ccccc2)NC(=O)[C@H](C)NC1=O [CP12] ({CH2CO}-[dY]TPDFSGFLAFLRNACGS[βAla][βAla]RK(5FAM)-NH2; thioether N-16) | 0.127 | 0.130 | 0.122 | 0.069 | preferentially bind under conditions where IF TmrAB is exclusively populated | 0.023
4 | CC[C@H](C)[C@@H]1NC(=O)[C@H](Cc2c[nH]c3ccccc23)NC(=O)[C@H](CC(N)=O)NC(=O)[C@H](C)NC(=O)[C@H](CO)NC(=O)[C@@H]2CCCN2C(=O)[C@H](CC(=O)O)NC(=O)[C@@H](Cc2ccc(O)cc2)NC(=O)CSC[C@@H](C(=O)NCC(=O)N[C@@H](CO)C(=O)NCCC(=O)NCCC(=O)N[C@@H](CCCNC(=N)N)C(=O)N[C@@H](CCCCNC(=O)c2ccc3c(c2)C(=O)OC32c3ccc(O)cc3Oc3cc(O)ccc32)C(N)=O)NC(=O)[C@H]([C@@H](C)O)NC(=O)[C@H](CC(C)C)NC(=O)[C@H](CC(C)C)NC(=O)[C@H](C(C)C)NC(=O)[C@H](CC(C)C)NC1=O [CP13] ({CH2CO}-[dY]DPSANWILVLLTCGS[βAla][βAla]RK(5FAM)-NH2; thioether N-14; C-terminus assumed) | 0.055 | 0.051 | 0.050 | 0.048 | bind in the absence and presence of ATP and ADP | 0.023
